{"source": "patent US20190374533A1", "about": "“COMPOUNDS AND METHODS FOR INHIBITING NHE-MEDIATED ANTIPORT IN THE TREATMENT OF DISORDERS ASSOCIATED WITH FLUID RETENTION OR SALT OVERLOAD AND GASTROINTESTINAL TRACT DISORDERS” (Ardelyx, Inc., priority 2008, published 2019)", "format_in_all_cases": "cell-based", "key": {"[1]": {"tested_on": "human duodenum monolayer culture", "assay": "Increased trans-epithelial resistance (TEER) in human organoid monolayer cell cultures", "conditions": "1 μM apical, baseline corrected", "description": "Transwells were 0.4 μm pore polyester membrane 24-well Transwell inserts (Corning). Cultures were incubated at 37° C. in 5% CO2.\nHuman duodenum organoids were cultured in WENRNAS (Wnt, EGF, noggin, R-spondin1. Nicotinamide, A83-01, SB202190) and typically grown for 7-12 days before being used to plate monolayer cultures. On day 0, organoid cultures embedded in Matrigel were treated with TrypLE Express to break organoids into small pieces and/or single cells. The cells were resuspended to 0.5×10^6 cells/mL in SBM containing WENRAY (Wnt. EGF, noggin, R-spondin1, A83-01, Y-27632). Following this step, 200 μL of cell suspension was plated into the apical side of a 24-well Transwell (100,000 cells/well) and 600 μL of SBM with WENRAY was added to the basolateral side. Duodenum cells were differentiated with ENA (EGF, noggin, A83-01) on day 3. […]\nEach human duodenum monolayer culture well was washed twice with fresh SBM on the apical side on day 6 or day 7 before dosing. […] Transepithelial electrical resistance (TEER) was used as a quantitative technique to measure of tight junction permeability. TEER values were recorded (MERS00002. Millipore) before dosing and 30 mins and 1 hr after dosing for all wells. […] Baseline corrected TEER for each example compound was compared to the average of the DMSO wells and expressed as a percent TEER of vehicle control."}, "NHE3 [2]": {"molecular_target": "T1, NHE3 (Homo sapiens, UniProt P48764)", "T1 construct": "due to the increase in NHE3 expression after differentiation; endogenous in cells; host or cells: human ileum / duodenum organoid-derived monolayers", "T1 sequence (P48764 26-834)": "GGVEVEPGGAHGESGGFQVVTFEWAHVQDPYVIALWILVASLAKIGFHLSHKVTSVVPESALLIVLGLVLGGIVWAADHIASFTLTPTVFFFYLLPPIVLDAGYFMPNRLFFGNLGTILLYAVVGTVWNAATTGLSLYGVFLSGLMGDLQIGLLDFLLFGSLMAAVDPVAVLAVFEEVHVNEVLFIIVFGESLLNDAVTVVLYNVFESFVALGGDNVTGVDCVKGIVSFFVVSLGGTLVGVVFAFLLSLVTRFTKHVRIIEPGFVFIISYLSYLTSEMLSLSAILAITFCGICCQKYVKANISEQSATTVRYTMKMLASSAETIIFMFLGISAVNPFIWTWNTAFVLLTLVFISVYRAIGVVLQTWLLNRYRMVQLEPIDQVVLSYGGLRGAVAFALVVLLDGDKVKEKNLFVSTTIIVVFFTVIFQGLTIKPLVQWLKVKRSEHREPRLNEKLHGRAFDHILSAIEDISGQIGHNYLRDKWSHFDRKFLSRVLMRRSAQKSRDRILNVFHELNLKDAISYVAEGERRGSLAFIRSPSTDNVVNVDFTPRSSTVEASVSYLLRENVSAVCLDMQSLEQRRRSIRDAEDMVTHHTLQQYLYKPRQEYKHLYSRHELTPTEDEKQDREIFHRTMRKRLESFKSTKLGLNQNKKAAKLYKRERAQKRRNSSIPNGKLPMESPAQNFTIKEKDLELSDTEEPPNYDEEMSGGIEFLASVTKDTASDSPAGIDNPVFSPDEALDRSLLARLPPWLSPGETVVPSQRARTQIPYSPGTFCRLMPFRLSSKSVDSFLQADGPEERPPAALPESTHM", "assay": "Sustained inhibition of apical acid secretion in human organoid monolayer cell cultures (ileum)", "conditions": "1 μM apical, dosed day 6, apical media pH day 8", "description": "Basal media (BM) consisted of advanced DMEM/F12 containing 10 mM HEPES (Invitrogen, 15630-080), 1:100 Glutamax (Invitrogen, 35050-061), and 1:100 penicillin/streptomycin (Invitrogen, 15140-122). […] Growth factors used included 50 ng per mL mouse EGF (Peprotech, 315-09), 100 ng per mL mouse noggin (Peprotech, 250-38), 500 ng per mL human R-spondin 1 (R&D, 4645-RS), 100 ng per mL mouse Wnt-3a (R&D, 1324-WN), 20 μM Y-27632 (Tocris, 1254), 10 mM nicotinamide (Sigma, N0636), 500 nM A83-01 (Tocris, 2939), 10 μM SB202190 (Tocris, 1264). Transwells were 0.4 μm pore polyester membrane 24-well Transwell inserts (Corning). Cultures were incubated at 37° C. in 5% CO2.\nHuman ileum organoids were cultured in WENRNAS (Wnt, EGF, noggin. R-spondin1. Nicotinamide. A83-01, SB202190) and typically grown for 7-12 days before being used to plate monolayer cultures. On day 0, organoid cultures embedded in Matrigel were treated with TrypLE Express to break organoids into small pieces and/or single cells. […]\nEach human ileum monolayer culture well was washed twice with fresh SBM on the apical side on day 6 before compound dosing. […] On day 8, apical media pH was measured by pH electrode, to determine the ability of example compounds to produce sustained inhibition of NHE3 activity in a human monolayer culture system by preventing proton secretion into the apical compartment."}, "NHE3 [3]": {"molecular_target": "T1, NHE3", "assay": "Sustained inhibition of apical acid secretion in human organoid monolayer cell cultures (duodenum)", "conditions": "1 μM apical"}}, "note": "Structures can show the parent of a compound that is named as a salt."}
{"smiles": "CN1Cc2c(Cl)cc(Cl)cc2[C@H](c2cccc(S(=O)(=O)NCCOCCOCCNC(=O)NCCCCNC(=O)NCCOCCOCCNS(=O)(=O)c3cccc([C@@H]4CN(C)Cc5c(Cl)cc(Cl)cc54)c3)c2)C1", "note": "(single isomer, unassigned) [Example 202, (S or R)—N,N′-(10,17-dioxo-3,6,21,24-tetraoxa-9,11,16,18-tetraazahexacosane-1,26-diyl)bis(3-((S)-6,8-dichloro-2-methyl-1,2,3,4-tetrahydroisoquinolin-4-yl)benzenesulfonamide) bis-hydrochloride salt]", "values": [{"measurement": "TEER at 30 minutes (% of Vehicle)", "setting": "[1]; 30 mins after dosing", "result": "B (100-130%)"}, {"measurement": "TEER at 60 minues (% of Vehicle)", "setting": "[1]; 1 hr after dosing", "result": "B (100-130%)"}, {"measurement": "% inhibition (ileum)", "setting": "NHE3 [2]", "result": "C (>70%)"}, {"measurement": "% inhibition (duodenum)", "setting": "NHE3 [3]", "result": "C (>70%)"}]}
